Laboratory results as given in patent US8227616B2, “Cyanopyridine antibacterial agents and methods of use thereof” (Wisconsin Alumni Research Foundation, priority 2006, dated 2012).
Converted amounts (≈) assume the structure as drawn. Where two headings read alike, the source gives them in different places.

How the values were obtained:
S. aureus ATCC 10390 [1] = test: Kirby-Bauer disk diffusion assay on compound spots from cleaved macroarray; assay type: cell-based, Staphylococcus aureus; conditions: loadings 30 μg/spot, 18 h incubation
Description: While the heterocyclic libraries were being synthesized, the chalcone macroarrays were analyzed using various direct assay techniques such as the Kirby-Bauer disk diffusion assay (FIG. 2E). Bauer, A. W.; Kirby, […].; Turck, M. Technical Bulletin of the Registry of Medical Technologists 1966, 36, 49-52. For this assay, the macroarray members are punched out from the membrane, cleaved from the support with TFA vapor, neutralized with ammonia vapor, and then placed on an agar bed inoculated with S. aureus. After incubating overnight, different diameters of zones of inhibition are measured as a factor of potency as well as solubility in the medium. Ammonia vapor neutralization was key in the disk diffusion assay, otherwise residual TFA vapor created a false positive signature. However, in this method, macroarrays have to be made in triplicate one for a replicate and one for compound characterization. We first evaluated test chalcone macroarrays (3) in antibacterial assays against S. aureus. Because the macroarrays were prepared on cellulose filter paper, we had convenient access to the compounds in disk form for standard disk diffusion assays. Compound spots were punched out of the macroarrays, subjected to vapor phase cleavage with acid (TFA), and neutralized (NH3) to afford disks containing ca. 30 μg of adsorbed compound [8]. These disks were manually placed on lawns of S. aureus, and zones of inhibition were measured after an 18 h incubation period. […] However, this antibacterial assay format had drawbacks: (1) the entire sample of compound was consumed during the assay, and thus replicate arrays needed to be synthesized to confirm activity, and (2) manipulating large numbers of compound disks was relatively labor intensive. Compound spots were cleaved with TFA and neutralized with NH3 as described herein. […] Compound spots were placed onto the agar, the plate was incubated at 37° C. for 18 h, and the diameters of the zones of inhibition were measured. […] Compound spots were subjected to the TFA cleavage conditions described above. The spots were next subjected to NH3 vapor to neutralize any remaining TFA. […] Vials containing the spots (or intact macroarrays) were placed inside a small evaporating dish, and this was placed into the NH4OH solution. The Pyrex dish was covered, and NH3 vapor was allowed to slowly diffuse into the vials. After 1 h, the vials were removed from the NH3 chamber, and the spots were allowed to stand open in a fume hood for at least 15 min to vent prior to analysis in the following assays. This afforded dry, paper disks containing adsorbed compound. […] The plates were removed, and the diameters of the zones of inhibition were measured in mm using a ruler (see FIG. 1A).

S. aureus ATCC 10390 [2] = test: MIC determination with authentic compounds resynthesized in solution; assay type: cell-based, Staphylococcus aureus; conditions: for MIC: Staphylococcus aureus, ATCC10390
Description: (§1) For estimated MIC determination, DMSO was added to the dried compound residue obtained from a single spot to afford ca. 100 μL of a 2 mM stock solution. Aliquots (5 μL) of these solutions were added to a 96-well plate, followed by 195 μL of diluted S. aureus 10390 (10^6 CFUs/mL) to yield ca. 50 μM final concentrations. The plates were swirled for 1 h to ensure compound dissolution, incubated for 12 h at 37° C., and the absorbance at 595 nm was recorded using a plate reader. […] Actual MIC values were determined for lead compounds resynthesized in solution using an analogous procedure with solutions of known concentration (see).
(§2) Dose response growth inhibition curves were determined for each active compound (resynthesized in solution) against S. aureus 10390 (SA) and methicillin-resistant S. aureus 33591 (MRSA). […] MIC assays were performed in quadruplicate.

[3] = system: Methicillin-resistant S. aureus ATCC 33591 (MRSA); test: as above; assay type: cell-based; conditions: Staphylococcus aureus; Table 3; authentic sample, only trans isomers of chalcones; error reflects step size in the serial dilutions
Description: as §1, §2

S. aureus 10390 = test: Time-dependent bacterial killing curves; assay type: cell-based, Staphylococcus aureus; conditions: 0.5x to 4x MIC, 0-6 h
Description: Solutions of compounds 4Bv, 6Ao, 9Cf, and linezolid were prepared in DMSO over a range of concentrations. […] At 0, 2, 4, and 6 h time points, […] samples were withdrawn from the test tubes, diluted into 10 mL of LB broth in a test tube, and swabbed in duplicate on agar plates to determine CFUs. These plates were incubated at 37° C. for 24 h, after which time the colonies were counted visually. […] Instead, 200 μL was removed from the test tube and directly swabbed on the agar plates.

SMILES: O=C(/C=C/c1cc(C(F)(F)F)cc(C(F)(F)F)c1)c1cccc(O)c1 [Compound 4Bv, 3′-hydroxy-3,5-bis(trifluoromethyl)chalcone]
- Zones of inhibition (S. aureus ATCC 10390 [1]): 22 mm
- MIC (S. aureus ATCC 10390 [2]; Table 2, authentic sample synthesized according to standard techniques, read-out: observed MIC): 3.3 ± 0.3 µM (≈ 1.19 µg/mL)
- MIC (S. aureus ATCC 10390 [2]; Table 3, authentic sample, only trans isomers of chalcones, error reflects step size in the serial dilutions, read-out: S. aureus MIC): 3.5 ± 0.5 µM (≈ 1.26 µg/mL)
- MIC against S. aureus 10390 (S. aureus ATCC 10390 [2]; values quoted in killing-curve protocol, unit not given): ca. 3.5
- MIC [3]: 3 ± 0.5 µM (≈ 1.08 µg/mL)
- mode of activity (bacteriostatic or bactericidal) (S. aureus 10390): bacteriostatic
